We go through seven cell lines from the supplement of paper PMC10307832.

What all share (assay): relative viability (nuclei count vs DMSO), 5 days (fraction); higher = more cells survive
Compound in assay [1]: COc1cc2nc(N3CCCN(C)CC3)nc(NC3CCN(Cc4ccccc4)CC3)c2cc1OC + CC(=O)Nc1cccc(-n2c(=O)n(C3CC3)c(=O)c3c(Nc4ccc(I)cc4F)n(C)c(=O)c(C)c32)c1 [Trametinib] (partner 0.02 µM)
Summed up: (§1)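 Nuclei were stained with Hoechst during a one-step fixation (final 0.05% Triton X-100, 1% formaldehyde, 1 ug/ml Hoechst) carried out 5 days after dosing, then counted on 4× images. The cells, lung cancer lines in 1536-well plates, had been dosed by pin tool the day after seeding with one drug alone or a fixed anchor-drug dose plus five library-drug doses (not always all listed) in √10 steps. Relative viability is the nuclei count in treated wells divided by that in vehicle wells, and each value is the median of duplicate plates.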

Compound in assay [2]: COc1cc2nc(N3CCCN(C)CC3)nc(NC3CCN(Cc4ccccc4)CC3)c2cc1OC + CC(=O)c1c(C)c2cnc(Nc3ccc(N4CCNCC4)cn3)nc2n(C2CCCC2)c1=O [Palbociclib] (partner 0.5 µM)
In short, it runs like this:
as §1

Compound in assay [3]: COc1cc2nc(N3CCCN(C)CC3)nc(NC3CCN(Cc4ccccc4)CC3)c2cc1OC + CC1(C)CCC(c2ccc(Cl)cc2)=C(CN2CCN(c3ccc(C(=O)NS(=O)(=O)c4ccc(N[C@H](CCN5CCOCC5)CSc5ccccc5)c(S(=O)(=O)C(F)(F)F)c4)cc3)CC2)C1 [Navitoclax] (partner 0.5 µM)
Summed up:
as §1

Compound in assay [4]: COc1cc2nc(N3CCCN(C)CC3)nc(NC3CCN(Cc4ccccc4)CC3)c2cc1OC + C[C@]1(O)C[C@@H](c2nc(-c3ccc4ccc(-c5ccccc5)nc4c3)c3c(N)nccn32)C1 [Linsitinib] (partner 1 µM)
In short, it runs like this:
as §1

Compound in assay [5]: COc1cc2nc(N3CCCN(C)CC3)nc(NC3CCN(Cc4ccccc4)CC3)c2cc1OC + Cc1nc(Nc2ncc(C(=O)Nc3c(C)cccc3Cl)s2)cc(N2CCN(CCO)CC2)n1 [Dasatinib] (partner 0.075 µM)
In short, it runs like this:
as §1

LXF-289: the relative viability in assay [1] (first compound 0.2 µM) worked out at 0.651; in assay [1] (first compound 0.6325 µM), 0.701; in assay [1] (first compound 2 µM) it was 0.634; in assay [1] (first compound 6.325 µM), 0.625; in assay [2] (first compound 0.2 µM), 0.583; in assay [2] (first compound 0.6325 µM), 0.603. The relative viability is 0.615 in assay [2] (first compound 2 µM); 0.586 in assay [2] (first compound 6.325 µM); 0.894 in assay [3] (first compound 0.2 µM); 0.938 in assay [3] (first compound 0.6325 µM); 1.01 in assay [3] (first compound 2 µM); 0.905 in assay [3] (first compound 6.325 µM). Further, the relative viability in assay [4] (first compound 0.2 µM) was 0.956; in assay [4] (first compound 0.6325 µM), 0.954; in assay [4] (first compound 2 µM), 0.98; in assay [4] (first compound 6.325 µM), 0.923; in assay [5] (first compound 0.2 µM), 0.263; in assay [5] (first compound 0.6325 µM), 0.212. Further, the relative viability in assay [5] (first compound 2 µM) came out at 0.252; in assay [5] (first compound 6.325 µM), 0.213.

NCI-H23: the relative viability turned out to be 0.358 in assay [1] (first compound 0.2 µM); 0.362 in assay [1] (first compound 0.6325 µM); 0.44 in assay [1] (first compound 2 µM); 0.342 in assay [1] (first compound 6.325 µM); 0.475 in assay [2] (first compound 0.2 µM); 0.522 in assay [2] (first compound 0.6325 µM). Besides, the relative viability in assay [2] (first compound 2 µM) turned out to be 0.521; in assay [2] (first compound 6.325 µM) it was 0.415; in assay [3] (first compound 0.2 µM) it was 0.757; in assay [3] (first compound 0.6325 µM) it was 0.882; in assay [3] (first compound 2 µM), 1.02; in assay [3] (first compound 6.325 µM), 0.722. For the same cell line, the relative viability in assay [4] (first compound 0.2 µM) was 0.562; in assay [4] (first compound 0.6325 µM), 0.733; in assay [4] (first compound 2 µM) it was 0.833; in assay [4] (first compound 6.325 µM) it was 0.53; in assay [5] (first compound 0.2 µM), 0.786; in assay [5] (first compound 0.6325 µM), 0.628. The relative viability is 0.859 in assay [5] (first compound 2 µM) and 0.876 in assay [5] (first compound 6.325 µM).

NCI-H322M: the relative viability stood at 0.503 in assay [1] (first compound 0.2 µM); 0.495 in assay [1] (first compound 0.6325 µM); 0.531 in assay [1] (first compound 2 µM); 0.512 in assay [1] (first compound 6.325 µM); 0.468 in assay [2] (first compound 0.2 µM); 0.531 in assay [2] (first compound 0.6325 µM). For the same cell line, the relative viability in assay [2] (first compound 2 µM) worked out at 0.435; in assay [2] (first compound 6.325 µM), 0.481; in assay [3] (first compound 0.2 µM), 1.12; in assay [3] (first compound 0.6325 µM), 1.12; in assay [3] (first compound 2 µM) it was 1.19; in assay [3] (first compound 6.325 µM), 1.21. The relative viability in assay [4] (first compound 0.2 µM) was found to be 0.826; in assay [4] (first compound 0.6325 µM) it was 0.887; in assay [4] (first compound 2 µM), 0.939; in assay [4] (first compound 6.325 µM), 0.901; in assay [5] (first compound 0.2 µM), 0.258; in assay [5] (first compound 0.6325 µM) it was 0.281. For the same cell line, the relative viability in assay [5] (first compound 2 µM) turned out to be 0.274; in assay [5] (first compound 6.325 µM), 0.26.

On to NCI-H441, for which the relative viability was 0.366 in assay [1] (first compound 0.2 µM); 0.532 in assay [1] (first compound 0.6325 µM); 0.422 in assay [1] (first compound 2 µM); 0.33 in assay [1] (first compound 6.325 µM); 0.191 in assay [2] (first compound 0.2 µM); 0.219 in assay [2] (first compound 0.6325 µM). Further, the relative viability came out at 0.236 in assay [2] (first compound 2 µM); 0.207 in assay [2] (first compound 6.325 µM); 0.591 in assay [3] (first compound 0.2 µM); 0.831 in assay [3] (first compound 2 µM); 0.277 in assay [3] (first compound 6.325 µM); 0.527 in assay [4] (first compound 0.2 µM). The relative viability came out at 0.515 in assay [4] (first compound 2 µM); 0.553 in assay [4] (first compound 6.325 µM); 0.602 in assay [5] (first compound 0.2 µM); 0.616 in assay [5] (first compound 0.6325 µM); 0.532 in assay [5] (first compound 2 µM); 0.599 in assay [5] (first compound 6.325 µM).

In the case of NCI-H460, the relative viability in assay [1] (first compound 0.2 µM) stood at 0.13; in assay [1] (first compound 0.6325 µM) it was 0.16; in assay [1] (first compound 2 µM) it was 0.107; in assay [1] (first compound 6.325 µM), 0.0898; in assay [2] (first compound 0.2 µM) it was 0.101; in assay [2] (first compound 0.6325 µM), 0.237. Also, the relative viability in assay [2] (first compound 2 µM) stood at 0.084; in assay [2] (first compound 6.325 µM), 0.0622; in assay [3] (first compound 0.2 µM), 1.16; in assay [3] (first compound 0.6325 µM), 1.13; in assay [3] (first compound 2 µM) it was 1.17; in assay [3] (first compound 6.325 µM) it was 0.754. Further, the relative viability stood at 0.73 in assay [4] (first compound 0.2 µM); 0.792 in assay [4] (first compound 0.6325 µM); 0.762 in assay [4] (first compound 2 µM); 0.267 in assay [4] (first compound 6.325 µM); 0.532 in assay [5] (first compound 0.2 µM); 0.534 in assay [5] (first compound 0.6325 µM). Moreover, the results for the relative viability in assay [5] (first compound 2 µM) and in assay [5] (first compound 6.325 µM) were 0.415 and 0.43, respectively.

In the case of NCI-H520, the relative viability came to 0.744 in assay [1] (first compound 0.2 µM); 0.637 in assay [1] (first compound 0.6325 µM); 0.674 in assay [1] (first compound 2 µM); 0.176 in assay [1] (first compound 6.325 µM); 0.168 in assay [2] (first compound 0.2 µM); 0.259 in assay [2] (first compound 0.6325 µM). Also, the relative viability in assay [2] (first compound 2 µM) came to 0.25; in assay [2] (first compound 6.325 µM) it was 0.148; in assay [3] (first compound 0.2 µM), 1.21; in assay [3] (first compound 0.6325 µM) it was 0.89; in assay [3] (first compound 2 µM), 0.989; in assay [3] (first compound 6.325 µM), 0.867. The relative viability was determined as 1.13 in assay [4] (first compound 0.2 µM); 0.931 in assay [4] (first compound 0.6325 µM); 1.1 in assay [4] (first compound 2 µM); 0.747 in assay [4] (first compound 6.325 µM); 0.217 in assay [5] (first compound 0.2 µM); 0.228 in assay [5] (first compound 0.6325 µM). Also, the relative viability worked out at 0.252 in assay [5] (first compound 2 µM) and 0.187 in assay [5] (first compound 6.325 µM).

Regarding NCI-H647, the relative viability in assay [1] (first compound 0.2 µM) was determined as 0.514; in assay [1] (first compound 0.6325 µM), 0.495; in assay [1] (first compound 2 µM), 0.527; in assay [1] (first compound 6.325 µM), 0.238; in assay [2] (first compound 0.2 µM), 0.336; in assay [2] (first compound 0.6325 µM), 0.457. The relative viability in assay [2] (first compound 2 µM) turned out to be 0.348; in assay [2] (first compound 6.325 µM), 0.213; in assay [3] (first compound 0.2 µM), 1.07; in assay [3] (first compound 0.6325 µM) it was 1.18; in assay [3] (first compound 2 µM), 1.32; in assay [3] (first compound 6.325 µM), 0.964. For the same cell line, the relative viability in assay [4] (first compound 0.2 µM) came to 1.17; in assay [4] (first compound 0.6325 µM), 1.03; in assay [4] (first compound 2 µM), 1.14; in assay [4] (first compound 6.325 µM) it was 0.599; in assay [5] (first compound 0.2 µM), 0.201; in assay [5] (first compound 0.6325 µM) it was 0.233. The values for the relative viability in assay [5] (first compound 2 µM) and in assay [5] (first compound 6.325 µM) were 0.192 and 0.149, respectively.
